Test results published in patent US11484543B2, “Compositions and methods for diagnosing and treating diseases and disorders associated with mutant KCNJ5” (The Rockefeller University, priority 2017, dated 2022).

Legend:
[1] = system: CYP11B2 (aldosterone synthase) expression, H295R cells expressing KCNJ5^WT; experiment: Real-time PCR of CYP11B2 in H295R cells transfected with KCNJ5^WT; type: cell-based, human; settings: 5, 20 or 50 μM for 18 h
Procedure: H295R cells were cultured in DMEM/F12, HEPES (Gibco) supplemented with 2.5% Ultroser G (Pall Biosepra), 1% ITS+ Premix (Corning) and 1% Penicillin/Streptomycin (Gibco). Plasmids were purified using the Endofree Maxi Kit (Qiagen). […] 3×10^6 cells were transfected with 3 μg pIRES eGFP containing no insert, WT or mutant KCNJ5 using an Amaxa Nucleofector I (program P-20) and the Nucleofector Kit R (Lonza). Cells were allowed to recover briefly in RPMI 1640 medium (Gibco). […] After an additional 18 h, RNA was harvested using the RNeasy Mini Kit (Qiagen) following the manufacturer's instructions. 300 ng RNA were transcribed using the Quantitect Reverse Transcription Kit (Qiagen). Expression levels of CYP11B2 and GAPDH were quantified in triplicates in a 7300 Real-Time PCR System (Applied Biosystems) using the Taqman Gene Expression Master Mix and assays Hs01597732_m1 (CYP11B2) or HS02758991_g1 (GAPDH) (all Applied Biosystems). DDCT values were calculated by normalization of DCT values, using the average DCT of vehicle treated empty vector-transfected cells as a reference.
This cell line is derived from a human adrenocortical carcinoma and represents a commonly used in vitro model of zona glomerulosa aldosterone production (Wang et al. 2012, Horm. Metab. Res. 44:245-250). […]

KCNJ5^WT = biological target: T1, KCNJ5^WT (Homo sapiens, UniProt P48544); experiment: Membrane potential assay (FLIPR dye) in inducible KCNJ5^WT HEK293 cells; type: cell-based; settings: tested as in FIG. 7 (FIGS. 9 and 10)
T1 construct: expressed in transfected cells
T1 sequence (P48544 1-419): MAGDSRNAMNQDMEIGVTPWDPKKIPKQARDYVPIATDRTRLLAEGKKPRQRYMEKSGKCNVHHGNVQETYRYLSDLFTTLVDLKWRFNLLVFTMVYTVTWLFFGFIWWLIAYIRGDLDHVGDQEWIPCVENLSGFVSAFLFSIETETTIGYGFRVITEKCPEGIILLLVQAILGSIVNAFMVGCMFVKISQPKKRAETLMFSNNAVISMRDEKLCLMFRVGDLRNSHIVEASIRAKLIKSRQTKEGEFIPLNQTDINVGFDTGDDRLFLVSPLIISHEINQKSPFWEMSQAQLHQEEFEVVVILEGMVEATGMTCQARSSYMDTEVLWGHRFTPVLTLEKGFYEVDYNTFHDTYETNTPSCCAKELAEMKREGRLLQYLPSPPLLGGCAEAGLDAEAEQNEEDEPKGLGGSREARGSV

## CC[C@H]1OC(=O)[C@H](C)[C@@H](O[C@H]2C[C@@](C)(OC)[C@@H](O)[C@H](C)O2)[C@H](C)[C@@H](O[C@@H]2O[C@H](C)C[C@H](N(C)C)[C@H]2O)[C@](C)(O)C[C@@H](C)/C(=N\OCOCCOC)[C@H](C)[C@@H](O)[C@]1(C)O [Roxithromycin, roxithromycin]
[1]
  expression of CYP11B2: virtually no change

## N-demethyl-N-isobutyl-8,9-anhydroerythromycin A 6,9-hemiacetal [PLUX37]
KCNJ5^WT
  inhibition of KCNJ5^WT by synthesized macrolide derivatives: no inhibition
